Measured values: patent US11866695B2, “Methods and systems and related compositions for mixtures separation with a solid matrix” (CALIFORNIA INSTITUTE OF TECHNOLOGY, priority 2019, dated 2024)
“Also recorded” adds a separate entry of the source.

What was measured:
[1] = Phase separation of compounds mixed at a 1:1 volume ratio; type: physicochemical; design: key: A “2” denotes phase separation into 2 distinct phases; a “1” forms a single phase
[2] = system: λ phage DNA; assay: Zymo Quick-DNA/RNA MagBead extraction with air dry replaced by TPW, qPCR; type: biochemical; conditions: 10× dilution of eluent into qPCR
Experimental: (§1) qPCR reactions contained 1× Bio-Rad SsoFast Supermix (1725201, Bio-Rad), PCR primers (IDT) at […] each, and were supplemented with nuclease-free water up to 10 μL. Each 96-well plate (thin-wall clear well, HSP9641, Bio-Rad) was sealed (Microseal B, MSB1001, Bio-Rad) and briefly spun in a Mini Plate Spinner Centrifuge (14-100-141, Fisher Scientific). Heating and real-time imaging were performed on the Bio-Rad CFX-96 Touch Real-Time PCR Detection System by heating to 95° C. for 5 min, cycling 40 times between 95° C. for 15 s, 60° C. for 15 s, and 72° C. for 20 s, and taking a melt-curve analysis. For the E. coli DNA dilution experiment, qPCR was run for 60 cycles. Fluorescence readings were taken at the end of each extension step. Quantification cycle (Cq) was determined when the software's automated baseline corrected fluorescence reached 200 RFU.
The Zymo Quick-DNA/RNA Viral MagBead (R2140) was tested. For the Zymo MagBead kit, 200 μL sample was mixed with 200 μL Zymo 2×DNA/RNA Shield, 4 μL Proteinase K, and 800 μL Zymo Viral DNA/RNA Buffer. 1204 μL was added to each tube, mixed with 20 μL MagBinding Beads, and placed on an UltraRocker Rocking Platform (1660709EDU, Bio-Rad, Hercules, Calif., USA) for 10 min at max speed. Tubes were transferred to a DynaMag-2 magnetic rack (12321D, Thermo Fisher Scientific) and manufacturer instructions was followed for the remainder of the protocol. […]

[3] = system: qPCR spiked with 5×104 copies λ phage DNA; assay: qPCR reaction inhibition by dilutions of NA extraction kit buffers; type: biochemical; conditions: for Avg Cq: 9 replicates, non-detects assigned 40 cycles
Experimental: as §1
Confidence intervals were calculated assuming the populations to be normally distributed and using a t statistic. For buffer inhibition experiments, statistical analysis was performed by a 1-tailed unequal variance t-test (N=9) comparing the water condition (control) to each buffer concentration (H1: the mean is delayed). For the subsequent experiments, a 2-tailed unequal variance t-test (H1: the means are different) was used. Non-detects were assigned the maximum possible Cq measurement of 40 cycles or a TTP of 46.7 min to indicate the lack of amplification. Although this approach introduces some bias into the analysis, it is believed this is the best representation for handling non-detects (other alternatives include excluding the non-detects or assigning non-detect values to the average of those that amplified).
These two commercial kits in particular were chosen because they both utilize minimal protocols (lysis, wash, elute) with no added steps (e.g. bacterial pellet spins, proteinase K, lysozyme, DNase/RNase, filtration, etc.). Specifically, an experiment was conducted to identify the concentration at which each buffer inhibits qPCR and LAMP. First, buffers were added at half-log dilutions (from 10% down to 0.032%) into λ phage spiked qPCR or LAMP reactions (1 μL diluted buffer, 1 μL template, 8 μL reaction mix).

[4] = system: LAMP reaction mix; assay: 3-step Zymo ZR extraction with viral wash buffer replaced, LAMP with 2× dilution of eluent; type: biochemical; conditions: wash replaces viral wash buffer; 5 μL eluent in 10 μL
Experimental: Three different silica-column kits were tested, including: Zymo ZR Viral DNA/RNA Kit (outdated protocol, D7021), Zymo Quick-DNA/RNA Kit (updated protocol, D7021), and the QIAquick PCR Purification Kit (28104, Qiagen). For all silica-column kits, fresh collection tubes were used after each spin and centrifugation speeds were set to 16,000×g. Centrifugation was performed on either an Eppendorf 5415D centrifuge (Eppendorf, Hauppauge, N.Y., USA) or a Thermo Fisher Scientific AccuSpin Micro 17R centrifuge (13-100-676). It was noted that the QIAquick protocol calls for 17,900×g, but instead was run at 16,000×g which was the max speed for the Eppendorf 5415D. For both Zymo kits, 750 μL lysed sample was prepared by mixing 125 μL sample with 125 μL Zymo 2×DNA/RNA Shield and 500 μL Viral DNA/RNA Buffer. For the Zymo ZR Viral DNA/RNA kit, 750 μL lysed sample was centrifuge for 1 min, 500 μL Zymo Viral Wash Buffer was centrifuged for 2 min, and 50 μL nuclease-free water was centrifuged for 30 s into a clean 1.5 mL tube. Optionally, either a dry spin or 300 μL TPW was centrifuged for 2 min in between the Viral Wash Buffer and elution steps. […] For the QIAquick PCR Purification Kit, 125 μL sample was mixed with 625 μL Buffer PB without indicator. 750 μL lysed sample was centrifuged for 30 s, followed by 750 μL Buffer PE for 30 s, a dry spin for 1 min, and 50 μL nuclease-free water for 1 min. Optionally, the dry spin was skipped or the dry spin was replaced with a 300 μL TPW and centrifuged for 1 min.
Exchanging the ethanol wash for a TPW could be useful for applications in which the starting sample is already relatively pure. For this experiment, Zymo ZR kit was used, which has three centrifugation steps: lysis (sample, shield, lysis buffer), wash (ethanol-based viral wash buffer), and elution (water). […] An aliquot of 5 μL of the resulting eluent was added to 5 μL of LAMP reaction mix and amplified at 68° C. Eluent from the manufacturer protocol amplified in 5.7 min. […]

| SMILES | Number of phases ([1]; mixed 1:1 (volume) with Ethanol) | Number of phases ([1]; mixed 1:1 (volume) with H2O) | Number of phases ([1]; mixed 1:1 (volume) with VWB (80% ethanol v/v)) | cycle delay vs manufacturer protocol [2] [cycle] | Avg Cq ([3]; 0.03% buffer in qPCR) [cycles] | ΔCq ([3]; 0.03% buffer vs water condition (0%)) [cycles] | Avg Cq ([3]; 0.1% buffer in qPCR) [cycles] | ΔCq ([3]; 0.1% buffer vs water condition (0%)) [cycles] | Avg Cq ([3]; 0.32% buffer in qPCR) [cycles] | ΔCq ([3]; 0.32% buffer vs water condition (0%)) [cycles] | Avg Cq ([3]; 1% buffer in qPCR) [cycles] | ΔCq ([3]; 1% buffer vs water condition (0%)) [cycles] | Avg Cq ([3]; 3.2% buffer in qPCR) [cycles] | ΔCq ([3]; 3.2% buffer vs water condition (0%)) [cycles] | Avg Cq ([3]; 10% buffer in qPCR) [cycles] | ΔCq ([3]; 10% buffer vs water condition (0%)) [cycles] | LAMP performance of eluent [4] |
| --- | --- | --- | --- | --- | --- | --- | --- | --- | --- | --- | --- | --- | --- | --- | --- | --- | --- |
| CCCCCCCCCCCO [1-undecanol] | 1 | 2 | 1 | 1.1 | – | – | – | – | – | – | – | – | – | – | – | – | – |
| CCO [Ethanol, ethanol] | – | – | – | – | 20.1 | 0.0 | 20.2 | 0.1 | 20.2 | 0.1 | 20.1 | 0.0 | 20.6 | 0.5 | 27.5 | 7.4 | slightly outperforms the viral wash buffer; also recorded: performed slightly better (earlier TTP) than the viral wash buffer |
